Assay results from paper PMC8580319, “Dual activities of ACC synthase: Novel clues regarding the molecular evolution of ACS genes” (Science Advances, 2021).
Changes are numbered by the printed parent chain. One block for each molecule: values may come before it.

Legend:
AtACS7 [1] = biological target: T1, AtACS7 (Arabidopsis thaliana, UniProt Q9STR4, D245N); test: ACC formation, converted to ethylene, GC; assay type: biochemical; conditions: ACS activity, reduced; 0.4 mM SAM, pH 8.5, 30°C, 10 μM PLP
T1 construct: gene ACS7; recombinant from E. coli Rosetta 2 (DE3) pLysS; pET-28a (His) or pGEX-6p-1 (GST); His-tagged protein for crystals; dimer
T1 sequence (Q9STR4 1-447 D245N): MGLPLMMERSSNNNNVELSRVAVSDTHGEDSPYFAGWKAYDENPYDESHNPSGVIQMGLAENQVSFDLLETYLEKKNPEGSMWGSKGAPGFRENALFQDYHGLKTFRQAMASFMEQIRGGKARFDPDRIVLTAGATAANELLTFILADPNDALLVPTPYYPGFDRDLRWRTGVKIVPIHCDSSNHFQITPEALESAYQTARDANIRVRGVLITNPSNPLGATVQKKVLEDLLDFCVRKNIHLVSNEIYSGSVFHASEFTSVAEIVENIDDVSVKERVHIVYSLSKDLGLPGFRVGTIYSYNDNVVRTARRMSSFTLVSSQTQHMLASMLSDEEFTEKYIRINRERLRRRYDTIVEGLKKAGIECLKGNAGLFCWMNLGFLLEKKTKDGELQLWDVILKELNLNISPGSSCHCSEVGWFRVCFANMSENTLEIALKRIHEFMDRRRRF

AtACS7 [2] = biological target: T2, AtACS7 (Arabidopsis thaliana, UniProt Q9STR4); test: Cβ-S lyase activity with and without PLP, pyruvate assay; assay type: biochemical; conditions: L-cystine 4 mM, 30°C
T2 construct: gene ACS7; recombinant from E. coli Rosetta 2 (DE3) pLysS; pET-28a (His) or pGEX-6p-1 (GST); His-tagged protein for crystals; dimer
T2 sequence (Q9STR4 1-447): T1 sequence (Q9STR4 1-447 D245N) with N245D

[3] = biological target: AtACS7-R6 (AtACS7 in which BOX2 is replaced by PpACL1-BOX2) (Arabidopsis | Physcomitrella patens); test: crystal structure; AtACS7-R6 with PPG (1 mM PLP and AVG added), hanging drop, 0.1 M Hepes pH 7.6, 6% PEG-10000; 2.95 Å; one dimer in the asymmetric unit
AtACS7 [4] = biological target: T2, AtACS7; test: inhibition of Cβ-S lyase activity, pyruvate assay; assay type: biochemical; conditions: L-cystine 4 mM, 100 μM PLP, 30°C; forms adduct with PLP
[5] = biological target: the molecule itself; test: crystal structure; AtACS7 with PPG (1 mM PLP and AVG added), hanging drop, 0.1 M tris pH 8.6, 23% PEG-3350; 2.20 Å; four complexes as two dimers in the asymmetric unit

Molecule: C[S+](CC[C@H](N)C(=O)O)C[C@H]1O[C@@H](n2cnc3c(N)ncnc32)[C@H](O)[C@@H]1O (some centres unmarked) [SAM]
ACC formation, converted to ethylene, GC (AtACS7 [1]): mutant still retained considerable, albeit reduced, ACS activity

Molecule: Cc1ncc(COP(=O)(O)O)c(C=O)c1O [PLP]
Cβ-S lyase activity with and without PLP, pyruvate assay (AtACS7 [2]): The Cβ-S lyase activity of AtACS7 was also PLP dependent

stoichiometry N [3]: 2
Molecule: AtACS7-R6 (AtACS7 in which BOX2 is replaced by PpACL1-BOX2) (enzyme)

Molecule: NCCO/C=C/[C@H](N)C(=O)O [AVG]
inhibition at 5 μM (AtACS7 [4]): could be totally suppressed by adding AVG to the reaction mixture

B1: Arabidopsis ACS7 (AtACS7), 1-aminocyclopropane-1-carboxylate (ACC) synthase 7 (enzyme)
chain: T1 sequence (Q9STR4 1-447 D245N) with N245D
notes: ACC synthase 7 (AtACS7) of Arabidopsis thaliana, TAIR locus AT4G26200; vector pET-28a or pGEX-6p-1 per the methods, HisTrap purification points to the His form; also called wild-type AtACS7; source: E. coli BL21 [Rosetta 2 (DE3) plysS], purified (HisTrap, Hitrap Q HP ion exchange, Superdex 200 gel filtration)
stoichiometry N [5]: 2
